Measurements reported in PubChem BioAssay (NCI).
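Assay format: 96-well plates, 48-hour exposure. GI50: concentration for 50% inhibition of growth. TGI: total growth inhibition.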

Key:
Assay in all cases: NCI-60 cell line screen, 48 h
[1] = tested on: NCI-H460 lung
[2] = tested on: MDA-MB-468 breast
[3] = tested on: CAKI-1 renal
[4] = tested on: SF-539 CNS
[5] = tested on: HS 578T breast
[6] = tested on: HCC-2998 colon
[7] = tested on: SW-620 colon
[8] = tested on: TK-10 renal
[9] = tested on: BT-549 breast
[10] = tested on: 786-0 renal
[11] = tested on: OVCAR-3 ovarian
[12] = tested on: SK-OV-3 ovarian
[13] = tested on: HT29 colon
[14] = tested on: MOLT-4 leukemia
[15] = tested on: EKVX NSCLC
[16] = tested on: HOP-92 NSCLC
[17] = tested on: M14 melanoma
[18] = tested on: SNB-75 CNS
[19] = tested on: MDA-MB-435
[20] = tested on: MALME-3M melanoma
[21] = tested on: UO-31 renal
[22] = tested on: NCI-H522 lung
[23] = tested on: ACHN renal
[24] = tested on: OVCAR-5 ovarian
[25] = tested on: SK-MEL-28 melanoma
[26] = tested on: SF-268 CNS
[27] = tested on: LOX IMVI melanoma
[28] = tested on: NCI/ADR-RES ovarian
[29] = tested on: DU-145 prostate
[30] = tested on: UACC-62 melanoma
[31] = tested on: U251 CNS
[32] = tested on: KM12 colon
[33] = tested on: SNB-19 CNS
[34] = tested on: OVCAR-8 ovarian
[35] = tested on: SN12C renal
[36] = tested on: MCF7 breast
[37] = tested on: RPMI-8226 leukemia
[38] = tested on: K-562 leukemia
[39] = tested on: A549 NSCLC
[40] = tested on: CCRF-CEM leukemia
[41] = tested on: SK-MEL-5 melanoma
[42] = tested on: HCT-15 colon
[43] = tested on: HL-60(TB) leukemia
[44] = tested on: SK-MEL-2 melanoma
[45] = tested on: NCI-H226 lung
[46] = tested on: SR leukemia
[47] = tested on: HCT-116 colon
[48] = tested on: PC-3 prostate
[49] = tested on: T-47D breast
[50] = tested on: HOP-62 NSCLC
[51] = tested on: SF-295 CNS
[52] = tested on: COLO 205 colon
[53] = tested on: OVCAR-4 ovarian
[54] = tested on: UACC-257 melanoma
[55] = tested on: A498 renal
[56] = tested on: IGROV1 ovarian
[57] = tested on: RXF 393 renal
[58] = tested on: NCI-H23 lung
[59] = tested on: MDA-MB-231 breast

Compound: CC[C@@]12CC(C(=O)OC)=C3Nc4cc5c(cc4[C@@]34CCN(C[C@H]3O[C@H]31)[C@@H]24)[C@@H]1[C@H](O5)[C@@H](O)[C@@]2(CC)CC(C(=O)OC)=C3Nc4cc(O)ccc4[C@@]34CCN1[C@@H]24
- GI50 [1]: 441 nM
- TGI [1]: 7570 nM
- GI50 [2]: 55.3 nM
- TGI [2]: 320 nM
- GI50 [3]: 61.9 nM
- TGI [3]: 6290 nM
- GI50 [4]: 322 nM
- TGI [4]: 11600 nM
- GI50 [5]: 105 nM
- TGI [5]: 2860 nM
- GI50 [6]: 145 nM
- TGI [6]: 735 nM
- GI50 [7]: 530 nM
- TGI [7]: 5250 nM
- GI50 [8]: 128 nM
- TGI [8]: 3310 nM
- GI50 [9]: 370 nM
- TGI [9]: 4050 nM
- GI50 [10]: 188 nM
- TGI [10]: 10000 nM
- GI50 [11]: 221 nM
- TGI [11]: 3580 nM
- GI50 [12]: 149 nM
- TGI [12]: 6220 nM
- GI50 [13]: 142 nM
- TGI [13]: 7450 nM
- GI50 [14]: 768 nM
- TGI [14]: 5320 nM
- GI50 [15]: 439 nM
- TGI [15]: 16700 nM
- GI50 [16]: 127 nM
- TGI [16]: 11000 nM
- GI50 [17]: 239 nM
- TGI [17]: 19200 nM
- GI50 [18]: 21.8 nM
- TGI [18]: 1190 nM
- GI50 [19]: 191 nM
- TGI [19]: 8940 nM
- GI50 [20]: 201 nM
- TGI [20]: 2640 nM
- GI50 [21]: 132 nM
- TGI [21]: 6080 nM
- GI50 [22]: 51.5 nM
- TGI [22]: 752 nM
- GI50 [23]: 363 nM
- TGI [23]: 12800 nM
- GI50 [24]: 1330 nM
- TGI [24]: 15000 nM
- GI50 [25]: 622 nM
- TGI [25]: 15800 nM
- GI50 [26]: 1300 nM
- TGI [26]: 13400 nM
- GI50 [27]: 111 nM
- TGI [27]: 542 nM
- GI50 [28]: 1110 nM
- TGI [28]: 3850 nM
- GI50 [29]: 1720 nM
- TGI [29]: 11500 nM
- GI50 [30]: 49.1 nM
- TGI [30]: 1170 nM
- GI50 [31]: 317 nM
- TGI [31]: 4770 nM
- GI50 [32]: 273 nM
- TGI [32]: 4520 nM
- GI50 [33]: 277 nM
- TGI [33]: 9060 nM
- GI50 [34]: 424 nM
- TGI [34]: 15700 nM
- GI50 [35]: 439 nM
- TGI [35]: 10900 nM
- GI50 [36]: 45.2 nM
- TGI [36]: 6010 nM
- GI50 [37]: 109 nM
- TGI [37]: 13700 nM
- GI50 [38]: 134 nM
- TGI [38]: 7900 nM
- GI50 [39]: 381 nM
- TGI [39]: 11100 nM
- GI50 [40]: 4380 nM
- TGI [40]: 56000 nM
- GI50 [41]: 154 nM
- TGI [41]: 958 nM
- GI50 [42]: 173 nM
- TGI [42]: 1800 nM
- GI50 [43]: 35.1 nM
- TGI [43]: 295 nM
- GI50 [44]: 876 nM
- TGI [44]: 5270 nM
- GI50 [45]: 157 nM
- TGI [45]: 7000 nM
- GI50 [46]: 79.3 nM
- TGI [46]: 7690 nM
- GI50 [47]: 199 nM
- TGI [47]: 1760 nM
- GI50 [48]: 380 nM
- TGI [48]: 18800 nM
- GI50 [49]: 143 nM
- TGI [49]: 10400 nM
- GI50 [50]: 156 nM
- TGI [50]: 7580 nM
- GI50 [51]: 330 nM
- TGI [51]: 12700 nM
- GI50 [52]: 158 nM
- TGI [52]: 2280 nM
- GI50 [53]: 232 nM
- TGI [53]: 14700 nM
- GI50 [54]: 199 nM
- TGI [54]: 6890 nM
- GI50 [55]: 269 nM
- TGI [55]: 2560 nM
- GI50 [56]: 254 nM
- TGI [56]: 2930 nM
- GI50 [57]: 763 nM
- TGI [57]: 3890 nM
- GI50 [58]: 278 nM
- TGI [58]: 2370 nM
- GI50 [59]: 117 nM
- TGI [59]: 1900 nM
